Measured values as given in patent US12466821B2 (Novartis AG, priority 2018, dated 2025).

Key:
[1] = system: Luciferase-encoding HCMV, AD169 strain; assay: CMV Luciferase assay (cellular herpesvirus replication); assay type: cell-based; conditions: Human betaherpesvirus 5, AD169, read-out: CMV-Luc Cellular EC50
Outline: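 Reporter HCMV AD169 with luciferase driven by late pp28 promoter, so signal requires viral DNA replication; NN-NHDF fibroblasts in 2% FBS medium, compound (0.0159–50 or 0.00318–10 μM, 0.5% DMSO) added 1 h before infection at MOI 1. Luminescence read 72 hpi; EC50 from 4-parameter fit of control-normalized %.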

[2] = biological target: human CMV DNA polymerase UL54 (Human cytomegalovirus (strain AD169) (HHV-5) (Human herpesvirus 5), UniProt P08546); assay: CMV polymerase biochemical assay (molecular beacon-based)
Outline: (§1)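 Full-length wild-type N-terminal MBP-fusion polymerases from sf9 cells were used at 100 pM (CMV) or 625 pM (HSV) in Tris pH 7.5, 10 mM MgCl2, and preincubated with inhibitor for 30 min at RT. Reactions with 1.25 uM each dNTP, 200 nM primer and 100 nM molecular beacon ran 60 min (CMV) or 20 min (HSV) at RT. Fluorescence was read at 480/535 nm and IC50 derived.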

[3] = biological target: human HSV DNA polymerase UL30 (Human herpesvirus 1 (strain 17) (HHV-1) (Human herpes simplex virus 1), UniProt P04293); assay: HSV polymerase biochemical assay (molecular beacon-based)
Outline: as §1

SMILES | EC50 [1] | IC50 [2] | IC50 [3]
Cc1cc(C(=O)NCc2ccc(Cl)cc2)c(=O)n2c1C(=O)N(CCN1CCCS1(=O)=O)CC2 [Example 66-1] | 417 nM | 37.5 nM | 125 nM
CS(=O)(=O)N1CCC1CN1CCn2c(ccc(C(=O)NCc3ccc(Cl)cc3)c2=O)C1=O (stereo not drawn) [Example 66] | 1520 nM | 112 nM | 1180 nM
C[S+]([O-])C1(CN2CCn3c(ccc(C(=O)NCc4ccc(Cl)cc4)c3=O)C2=O)CC1 (stereo not drawn) [Example 67-1, N-(4-chlorobenzyl)-2-((1-(methylsulfinyl)cyclopropyl)methyl)-1,6-dioxo-2,3,4,6-tetrahydro-1H-pyrido[1,2-a]pyrazine-7-carboxamide] | 868 nM | 57.3 nM | 1780 nM
C[S+]([O-])C1(CN2CCn3c(ccc(C(=O)NCc4ccc(C#N)cc4)c3=O)C2=O)CC1 (stereo not drawn) [Example 68-1, N-(4-cyanobenzyl)-2-((1-(methylsulfinyl)cyclopropyl)methyl)-1,6-dioxo-2,3,4,6-tetrahydro-1H-pyrido[1,2-a]pyrazine-7-carboxamide] | 3170 nM | 146 nM | 3800 nM
C[S@@+]([O-])C1(CN2CCn3c(ccc(C(=O)NCc4ccc(C#N)cc4)c3=O)C2=O)CC1 [Example 68-2] | 2860 nM | 62.2 nM | 2730 nM
C[S@+]([O-])C1(CN2CCn3c(ccc(C(=O)NCc4ccc(C#N)cc4)c3=O)C2=O)CC1 [Example 68-3] | 7560 nM | 198 nM | 9190 nM
COCC1(CN2CCn3c(ccc(C(=O)NCc4ccc(Cl)cc4)c3=O)C2=O)CC1 [Example 69, N-(4-chlorobenzyl)-2-((1-(methoxymethyl)cyclopropyl)methyl)-1,6-dioxo-2,3,4,6-tetrahydro-1H-pyrido[1,2-a]pyrazine-7-carboxamide] | 10000 nM | 656 nM | 5250 nM
O=C(NCc1ccc(Cl)cc1)c1ccc2n(c1=O)CCN(CC1(N3CCCS3(=O)=O)CC1)C2=O [Example 70, N-(4-chlorobenzyl)-2-((1-(1,1-dioxidoisothiazolidin-2-yl)cyclopropyl)methyl)-1,6-dioxo-2,3,4,6-tetrahydro-1H-pyrido[1,2-a]pyrazine-7-carboxamide] | 40.1 nM | 1.4 nM | 28.1 nM
CN(C)S(=O)(=O)CCN1CCn2c(ccc(C(=O)NCc3ccc(Cl)cc3)c2=O)C1=O [Example 71, N-(4-chlorobenzyl)-2-(2-(N,N-dimethylsulfamoyl)ethyl)-1,6-dioxo-2,3,4,6-tetrahydro-1H-pyrido[1,2-a]pyrazine-7-carboxamide] | 3050 nM | 347 nM | 2780 nM
CC(C)(C)NS(=O)(=O)C1(CN2CCn3c(ccc(C(=O)NCc4ccc(Cl)cc4)c3=O)C2=O)CC1 [Example 72-1, 2-((1-(N-(tert-butyl)sulfamoyl)cyclopropyl)methyl)-N-(4-chlorobenzyl)-1,6-dioxo-2,3,4,6-tetrahydro-1H-pyrido[1,2-a]pyrazine-7-carboxamide] | 29.2 nM | 0.6 nM | 23.5 nM
NS(=O)(=O)C1(CN2CCn3c(ccc(C(=O)NCc4ccc(Cl)cc4)c3=O)C2=O)CC1 [Example 72-2, N-(4-chlorobenzyl)-1,6-dioxo-2-((1-sulfamoylcyclopropyl)methyl)-2,3,4,6-tetrahydro-1H-pyrido[1,2-a]pyrazine-7-carboxamide] | 50.2 nM | 1.2 nM | 26.4 nM
CC(=O)NS(=O)(=O)C1(CN2CCn3c(ccc(C(=O)NCc4ccc(Cl)cc4)c3=O)C2=O)CC1 [Example 72-3, 2-((1-(N-acetylsulfamoyl)cyclopropyl)methyl)-N-(4-chlorobenzyl)-1,6-dioxo-2,3,4,6-tetrahydro-1H-pyrido[1,2-a]pyrazine-7-carboxamide] | 805 nM | 0.8 nM | 31.1 nM
CC(C)(C)NS(=O)(=O)C1(CN2CCn3c(ccc(C(=O)NCc4ccc(C#N)cc4)c3=O)C2=O)CC1 [Example 73-1] | 93.7 nM | 1.5 nM | 46.9 nM
CC(=O)NS(=O)(=O)C1(CN2CCn3c(ccc(C(=O)NCc4ccc(C#N)cc4)c3=O)C2=O)CC1 [Example 73-3] | 9310 nM | 1.6 nM | 45.9 nM
CN(C(C)(C)C)S(=O)(=O)C1(CN2CCn3c(ccc(C(=O)NCc4ccc(Cl)cc4)c3=O)C2=O)CC1 [Example 74-1] | 13.7 nM | 0.4 nM | 22.7 nM
CNS(=O)(=O)C1(CN2CCn3c(ccc(C(=O)NCc4ccc(Cl)cc4)c3=O)C2=O)CC1 [Example 74-2] | 14.5 nM | 1.6 nM | 52.1 nM

SMILES | EC50 [1] | IC50 [2] | IC50 [3]
CN(C(C)(C)C)S(=O)(=O)C1(CN2CCn3c(ccc(C(=O)NCc4ccc(C#N)cc4)c3=O)C2=O)CC1 [Example 75-1] | 35.6 nM | 1.1 nM | 45.9 nM
CNS(=O)(=O)C1(CN2CCn3c(ccc(C(=O)NCc4ccc(C#N)cc4)c3=O)C2=O)CC1 [Example 75-2] | 62.2 nM | 2.7 nM | 77.3 nM
O=C(NCc1ccc(Cl)cc1)c1ccc2n(c1=O)CCN(CC1(S(=O)(=O)C3(F)CC3)CC1)C2=O [Example 76, N-(4-chlorobenzyl)-2-((1-((1-fluorocyclopropyl)sulfonyl)cyclopropyl)methyl)-1,6-dioxo-2,3,4,6-tetrahydro-1H-pyrido[1,2-a]pyrazine-7-carboxamide] | 46.9 nM | 1.9 nM | 59.5 nM
N#Cc1ccc(CNC(=O)c2ccc3n(c2=O)CCN(CC2(S(=O)(=O)C4(F)CC4)CC2)C3=O)cc1 [Example 77-1, N-(4-cyanobenzyl)-2-((1-((1-fluorocyclopropyl)sulfonyl)cyclopropyl)methyl)-1,6-dioxo-2,3,4,6-tetrahydro-1H-pyrido[1,2-a]pyrazine-7-carboxamide] | 126 nM | 3.2 nM | 95.4 nM
N#Cc1ccc(CNC(=O)c2ccc3n(c2=O)CCN(CC2(S(=O)(=O)C4(F)CC4)CC2)C3=O)cc1F [Example 77-2] | 57.7 nM | 1.9 nM | 77.2 nM
O=C(NCc1ccc(Cl)cc1)c1ccc2n(c1=O)CCN(CC1(S(=O)(=O)C3CCC3)CC1)C2=O [Example 78, N-(4-chlorobenzyl)-2-((1-(cyclobutylsulfonyl)cyclopropyl)methyl)-1,6-dioxo-2,3,4,6-tetrahydro-1H-pyrido[1,2-a]pyrazine-7-carboxamide] | 15.7 nM | 1 nM | 30 nM
N#Cc1ccc(CNC(=O)c2ccc3n(c2=O)CCN(CC2(S(=O)(=O)C4CCC4)CC2)C3=O)cc1 [Example 79-1] | 33.7 nM | 1.3 nM | 33.4 nM
N#Cc1ccc(CNC(=O)c2ccc3n(c2=O)CCN(CC2(S(=O)(=O)C4CCC4)CC2)C3=O)cc1F [Example 79-2] | 34.3 nM | 2 nM | 65.4 nM
O=C(NCc1ccc(Cl)cc1)c1ccc2n(c1=O)CCN(CC1(S(=O)(=O)C3CCNC3)CC1)C2=O (stereo not drawn) [Example 80-1, N-(4-chlorobenzyl)-1,6-dioxo-2-((1-(pyrrolidin-3-ylsulfonyl)cyclopropyl)methyl)-2,3,4,6-tetrahydro-1H-pyrido[1,2-a]pyrazine-7-carboxamide] | 216 nM | 3.4 nM | 97.6 nM
CN1CCC(S(=O)(=O)C2(CN3CCn4c(ccc(C(=O)NCc5ccc(Cl)cc5)c4=O)C3=O)CC2)C1 (stereo not drawn) [Example 80-2, N-(4-chlorobenzyl)-2-((1-((1-methylpyrrolidin-3-yl)sulfonyl)cyclopropyl)methyl)-1,6-dioxo-2,3,4,6-tetrahydro-1H-pyrido[1,2-a]pyrazine-7-carboxamide] | 247 nM | 9.7 nM | 177 nM
N#Cc1ccc(CNC(=O)c2ccc3n(c2=O)CCN(CC2(S(=O)(=O)C4CCNC4)CC2)C3=O)cc1F (stereo not drawn) [Example 81-1] | 1070 nM | 3.8 nM | 152 nM
CN1CCC(S(=O)(=O)C2(CN3CCn4c(ccc(C(=O)NCc5ccc(C#N)c(F)c5)c4=O)C3=O)CC2)C1 (stereo not drawn) [Example 81-2] | 486 nM | 11.3 nM | 204 nM
N#Cc1ccc(CNC(=O)c2ccc3n(c2=O)CCN(CC2(S(=O)(=O)C4CCNC4)CC2)C3=O)cc1 (stereo not drawn) [Example 81-3] | 1190 nM | 7 nM | 216 nM
CN1CCC(S(=O)(=O)C2(CN3CCn4c(ccc(C(=O)NCc5ccc(C#N)cc5)c4=O)C3=O)CC2)C1 (stereo not drawn) [Example 81-4] | 1080 nM | 23.3 nM | 474 nM
N#Cc1ccc(CNC(=O)c2ccc3n(c2=O)CCN(CC2CCCS2(=O)=O)C3=O)cc1F (stereo not drawn) [Example 82, N-(4-cyano-3-fluorobenzyl)-2-((1,1-dioxidotetrahydrothiophen-2-yl)methyl)-1,6-dioxo-2,3,4,6-tetrahydro-1H-pyrido[1,2-a]pyrazine-7-carboxamide] | 10000 nM | 1090 nM | 20900 nM
N#Cc1ccc(CNC(=O)c2ccc3n(c2=O)CCN(CC2(S(=O)(=O)C4CC(F)(F)C4)CC2)C3=O)cc1 [Example 83, N-(4-cyanobenzyl)-2-((1-((3,3-difluorocyclobutyl)sulfonyl)cyclopropyl)methyl)-1,6-dioxo-2,3,4,6-tetrahydro-1H-pyrido[1,2-a]pyrazine-7-carboxamide] | 146 nM | 4.4 nM | 101 nM
